Like-named read-outs stand apart in the source and are kept apart here.
Columns and labels:
[1] = system: phenylquinone-writhing; assay: Analgesic activity, phenylquinone-writhing test; assay type: in vivo, Swiss albino mice; conditions: for ED50: Mus musculus, sc, read-out: Ed50 (analgesic activity); for Analgesic activity (in words): mouse, in vivo
Protocol: (§1) Initially the activity of the compound tested on an animal was determined at a single dose. If the substance was active at this dose, it was subjected to limited repeat testing. If the presence of activity was confirmed by repetition of the testing, a dose response relation was constructed and the effective dose (ED50) determined. If toxicity was encountered with the initial dose, the dose was reduced until one was reached which was tolerated by the animals tested.
The active ingredients were suspended in a solution of physiological saline and "Tween 80" (TM) surfactant. A dose amounting to 10 milliliters of physiological saline solution and active ingredient per kilogram of bodyweight was administered to the mice according to the dosage as set out in Table 2.

[2] = system: blood-glucose; assay: Determination of blood-glucose (hyperglycemic activity); assay type: in vivo, Wistar rats; conditions: for Hyperglycemic activity (in words): rat, in vivo; for % change in blood-glucose concentrations: oral, fasted Wistar rats, 4 hours post-treatment
Protocol: as §1
Substances were suspended in distilled water and were administered orally to over-night fasted Wistar rats. […] (Escalab ® G:15) (Barthelmai and Czok, Klinische Wochenschrift 40: 585 (1962)).

[3] = system: carageenan inflamed paw; assay: Anti-inflammatory activity, carageenan-inflamed hind paw volume; assay type: in vivo, Sprague-Dawley rats; conditions: for Response % animals protected, 3 hours after drug / Response % animals protected, 5 hours after drug: subcutaneous, Sprague-Dawley rats; for Anti-inflammatory activity (in words): rat, in vivo
Protocol: as §1
Substances were administered subcutaneously to Sprague-Dawley rats, weighing 100-120 g. A suspension of 0.03% carageenan was injected under the plantar skin of a hind paw. The increase in volume of the inflamed paw was measured 3 and 5 hours after drug administration.

[4] = 32 mg/kg, subcutaneous, Swiss albino mice
[5] = 64 mg/kg, subcutaneous, Swiss albino mice
[6] = 128 mg/kg, subcutaneous, Swiss albino mice
[7] = 256 mg/kg, subcutaneous, Swiss albino mice
[8] = subcutaneous, Swiss albino mice, method of Litchfield and Wilcoxon

| SMILES | Hyperglycemic activity (in words) [2] | Response % inhibition (phenylquinone-writhing) [1, 4] [%] | Response % inhibition (phenylquinone-writhing) [1, 5] [%] | Response % inhibition (phenylquinone-writhing) [1, 6] [%] | Response % inhibition (phenylquinone-writhing) [1, 7] [%] | ED50 [1, 8] [mg/kg] | Analgesic activity (in words) [1] | Response % animals protected, 3 hours after drug ([3]; 64 mg/kg) [%] | Response % animals protected, 5 hours after drug ([3]; 64 mg/kg) [%] | Anti-inflammatory activity (in words) [3] | also measured |
| --- | --- | --- | --- | --- | --- | --- | --- | --- | --- | --- | --- |
| CC(=O)Oc1ccccc1C(=O)O [Aspirin (TM), reference compound] |  |  |  |  |  |  |  |  |  |  | ED50 [1]: 52 mg/kg |
| O=C(NN1CC=CCC1)c1ccncc1 [Compound A-13, N-(4-pyridylcarbonylimino)-1,2,5,6-tetrahydropyridine] | demonstrated hyperglycemic activity | 38.6 | 58.0 | 80.8 | 96.0 | 53 | active analgesics | 25 | 75 | striking anti-inflammatory action | Hyperglycemic activity (in words) ([2]; listed as A13): hyper-; Analgesic activity (in words) ([1]; listed as A13): analgesic; Anti-inflammatory activity (in words) ([3]; listed as A13): anti-inflammatory |
| O=C(NN1CC=CCC1)c1cccnc1 [Compound A-14, N-(3-pyridylcarbonylimino)-1,2,5,6-tetrahydropyridine] | demonstrated hyperglycemic activity | 38.9 | 59.2 | 81.2 | 89.6 | 47 | active analgesics | 50 | 0 |  | Hyperglycemic activity (in words) ([2]; listed as A14): hyper-; Analgesic activity (in words) ([1]; listed as A14): analgesic |
| O=C(NN1CC=CCC1)c1ccccn1 [Compound A-19, N-(2-pyridylcarbonylimino)-1,2,5,6-tetrahydropyridine] | demonstrated hyperglycemic activity |  |  | 57.3 |  |  | active analgesics | 25 | 75 | striking anti-inflammatory action | % change in blood-glucose concentrations ([2]; 100 mg/kg): +50%; % change in blood-glucose concentrations ([2]; 200 mg/kg): +50%; Hyperglycemic activity (in words) ([2]; listed as A19): hyper-; Analgesic activity (in words) ([1]; listed as A19): analgesic; Anti-inflammatory activity (in words) ([3]; listed as A19): anti-inflammatory |
| O=C(NN1CC=CCC1)c1ccccc1 [Compound A-20, N-(benzoylimino)-1,2,5,6-tetrahydropyridine] |  | 57.4 | 59.0 | 88.2 | 98.0 | 36 | active analgesics | 25 | 50 |  | Response % inhibition (phenylquinone-writhing) ([1]; 16 mg/kg, subcutaneous, Swiss albino mice): 26.2%; Analgesic activity (in words) ([1]; listed as A20): analgesic |
| O=C(NN1CCC=C(CCCO)C1)c1ccccc1 [Compound A-21, N-(benzoylimino)-3-(3^1-hydroxypropyl)-1,2,5,6-tetrahydropyridine] |  |  |  | 20 |  |  | analgesic (slight) |  |  |  |  |
| O=C(NN1CCC=C(CCCO)C1)c1ccncc1 [Compound A-22, N-(4-pyridylcarbonylimino)-3-(3^1-hydroxypropyl)-1,2,5,6-tetrahydropyridine] |  |  |  | 43 |  |  | analgesic (slight) |  |  |  |  |
| O=C(NN1CC=C(CCCO)CC1)c1ccncc1 [Compound A-23, N-(4-pyridylcarbonylimino)-4-(3^1-hydroxypropyl)-1,2,5,6-tetrahydropyridine] |  |  |  | 11 |  |  |  | 25 | 75 | striking anti-inflammatory action | Anti-inflammatory activity (in words) ([3]; listed as A23): anti-inflammatory |
| COc1ccc2c(c1)c(CC(=O)O)c(C)n2C(=O)c1ccc(Cl)cc1 [Indomethazine (TM), reference compound] |  |  |  |  |  |  |  |  |  |  | Response % animals protected, 3 hours after drug ([3]; 12 mg/kg): 50%; Response % animals protected, 5 hours after drug ([3]; 12 mg/kg): 50% |

— patent US4088653A, “Tetrahydropyridyl derivatives” (Canadian Patents and Developments Limited, priority 1976, dated 1978)
